Test results taken from patent US10900093B2, “Molecular marker of plasmodium falciparum artemisinin resistance” (priority 2013, dated 2021).

Assays:
Type in all cases: cell-based, Plasmodium falciparum
3D7 parasites = assay: Ring-stage Survival Assay (RSA0-3h), control 3D7 parasites
Experimental: (§1) The Ring-stage Survival Assay (RSA^0-3h) was carried out as described by Witkowski et al^13 using highly synchronous parasite cultures. In brief, 0-3h post-invasion ring-stage parasites were exposed to 700 nM DHA [dihydroartemisinin, obtained from WWARN (www.wwarn.org/research/tools/qaqc)] or its solvent DMSO for 6 h, washed and then cultivated for the next 66 h without drug. Survival rates were assessed microscopically by counting in Giemsa-stained thin smears the proportion of viable parasites that developed into second-generation rings or trophozoites with normal morphology.

[1] = system: F32-ART5 parasite line (0-3h post-invasion ring-stage parasites); assay: Ring-stage Survival Assay (RSA0-3h), F32-ART5 lineage; settings: for RSA0-3h survival rate (median): 700 nM DHA for 6 h, n=3
Experimental: as §1
(§2) The F32-ART5 samples tested in the Ring-stage Survival Assay (RSA^0-3h) were collected at the time of the 17th, 48th and 122nd pressure cycles (0.04, 2.7 and 9 μM ART), respectively. The F32-TEM sample was collected at the last mock pressure cycle. The RSA0-3h survival rates were determined in triplicate experiments with different batches of red blood cells, and evaluated as above using Giemsa-stained thin smears read by two independent microscopists (B. W. and F. B.-V.). Survival rates were compared using Mann-Whitney U test. […] The RSA^0-3h survival rate of the F32-TEM line was also determined in triplicate experiments (n=3, median 0%, IQR 0-0.05, P=0.81 for #TEM vs. #17, Mann-Whitney U test).

[2] = system: F32-TEM line (0-3h post-invasion ring-stage parasites); assay: Ring-stage Survival Assay (RSA0-3h), F32-TEM line; settings: last mock pressure cycle, 700 nM DHA for 6 h, n=3
Experimental: as §1, §2

[3] = system: Cambodian parasite isolates (0-3h post-invasion ring-stage parasites); assay: Ring-stage Survival Assay (RSA0-3h), culture-adapted Cambodian parasite isolates stratified by K13-propeller allele
Experimental: Fifty clinical P. falciparum isolates from Cambodia (collected in 2010 and 2011) were adapted to in vitro culture as described by Witkowski et al.^45. […] Parasite DNA was extracted from frozen blood aliquots (200 μl) using the Mini blood kit (Qiagen).
as §1

SMILES: C[C@H]1[C@@H](O)O[C@@H]2O[C@@]3(C)CC[C@H]4[C@H](C)CC[C@@H]1[C@@]24OO3 [DHA, dihydroartemisinin]
- RSA0-3h survival rate (3D7 parasites): 0.04%
- RSA0-3h survival rate (median) ([1]; F32-ART5 at drug-pressure cycle #17): 0%
- RSA0-3h survival rate (median) ([1]; F32-ART5 at drug-pressure cycle #48): 11.7%
- RSA0-3h survival rate (median) ([1]; F32-ART5 at drug-pressure cycle #122): 12.8%
- RSA0-3h survival rate ([1]; F32-ART5 lineage after appearance of PF3D7_0110400 D56V and PF3D7_1343700 M476I mutations): 12.8%
- RSA0-3h survival rate ([1]; F32-ART5 lineage before appearance of PF3D7_0110400 D56V and PF3D7_1343700 M476I mutations): less than 0.01%
- RSA0-3h survival rate (median) [2]: 0%
- RSA0-3h survival rate (median) ([3]; isolates with wildtype K13-propeller alleles, n=16): 0.17%
- RSA0-3h survival rate (median) ([3]; wildtype K13-propeller, n=17 (FIG. 2), 700 nM DHA for 6 h): 0.16%
- RSA0-3h survival rate (median) ([3]; {}): 18.8%
- RSA0-3h survival rates (range) ([3]; {}): 3.8%-58%
